In assay [1] the test system is AML cell lines. As to the kind of experiment: Cell viability assay (MTT dye reduction), Mito-high versus Mito-low AML cell lines. It counts as cell-based, Human. The settings on record: 96 h incubation, Mito AML cell lines (n=9) vs non-Mito AML cell lines (n=10), Wilcoxon rank sum test, Figure 6D. From the text:
Human AML cell lines including THP-1 (DSMZ no. ACC16; […]), OCI-AML2 (DSMZ No. ACC 99; FAB M4), OCI-AML3 (DSMZ No. ACC 582; FAB M4), Molm13 (DSMZ No. ACC 554; FAB […]), PL-21 (DSMZ No. ACC 536; FAB M3), HL-60 (DSMZ No. ACC 3; FAB M2), MV4-11 (DSMZ No. ACC 102; FAB M5), SIG-M5 (DSMZ No. ACC 468; FAB […]), ML2 (DSMZ No. ACC 15; FAB M4), NB4 (DSMZ No. ACC 207; FAB M3), KG1 (DSMZ No. ACC 14; FAB not indicated), KG-1a (DSMZ No. ACC 421; FAB not indicated), U-937 (DSMZ No. ACC 5, FAB not indicated), Kasumi-1 (DSMZ No. ACC 220, FAB M2), EOL-1 (DSMZ No. ACC 386, FAB not indicated), OCI-AML5 (DSMZ No. ACC 247, FAB M4), UT-7 (DSMZ No. ACC 137, FAB M7), SET-2 (DSMZ No. ACC 608, FAB no indicated), MonoMac6 (DSMZ No. ACC 124; FAB M5) and HEL (DSMZ No. ACC 11; FAB M6) were obtained from DSMZ (Deutsche Sammlung von Mikroorganismen und Zellkulturen GmbH). THP-1, OCI-AML2, OCI-AML3, Molm13, PL-21, HL-60, MV4-11, SIG-M5, ML2, NB4, KG1, KG-1a, U-937, EOL-1, SET-2, MonoMac6 and HEL were cultured in RPMI 1640 (ThermoFisher, Cat. No. 11875093), supplemented with 20% FBS, 4 mM L-glutamine, 100 IU/ml penicillin and […] streptomycin. Kasumi-1 and OCI-AML5 were cultured in Advanced RPMI (ThermoFisher, Cat. No. 12633012) supplemented with 5% FBS, 4 mM L-glutamine, 100 IU/ml penicillin and […] streptomycin. […] IC50 values were determined using the R package "drc" v3.0-1 (Ritz et al., 2015). […]

Assay [2] relates to primary patient samples. As to the kind of experiment: Seahorse analysis: complex I dependency of respiration after rotenone, primary patient samples.
Assay [3] deals with AML cell lines. As to the kind of experiment: Seahorse analysis: complex I dependency of respiration after rotenone, cell lines.

This is an account of results in patent EP4202440A1, “PROTEOMICS-BASED STRATIFICATION OF ACUTE MYELOID LEUKAEMIA” (Max-Planck-Gesellschaft zur Förderung der Wissenschaften …, priority 2021, dated 2023).

`FC(F)(F)c1ccc(/C=C/c2nc(COc3ccc(CCCCn4ccnn4)cc3)co2)cc1` [mubritinib, Mubritinib]: the “half-maximum inhibitory concentration (IC50): in vitro sensitivity of Mito-high and -low cell lines” value in assay [1] was “significant hypersensitivity”. As to `C=C(C)[C@H]1Cc2c(ccc3c2O[C@@H]2COc4cc(OC)c(OC)cc4[C@@H]2C3=O)O1` [rotenone, Rotenone], the “Complex I dependency (percentage of basal oxygen consumption rate after inhibition with rotenone)” value in assay [2] and in assay [3] was “significantly stronger Complex I dependency” throughout.
